From PMC6072471 (MedChemComm, 2017) come the findings set out here.

Data set [1] has as its system HEK293 cells.
The subject of data set [2] is rVSIV-ΔG-MarV-GP pseudotype. The data set is described as follows: organism not typed. In kind it is cell-based, Marburg virus. The settings on record: for IC50: HEK293, 24 h, read-out: ICMarV50.
Data set [3] concerns rVSIV-ΔG-G pseudotype. The data set is described as follows: microbe, parasite or virus in culture. The data set is classed as cell-based, Vesicular stomatitis Indiana virus. The settings on record: for IC50: Vesicular stomatitis Indiana virus, HEK293, 24 h, read-out: ICVSIV50.

Some results are limits rather than exact numbers.

On to `CC1(C)[C@H]2CC[C@]1(C)[C@H](O)C2` [(–)-Borneol, reference compound], for which the “toxicity (in words)” value in data set [1] is “nontoxic”. In data set [2], the “activity against rVSIV-ΔG-MarV-GP (in words)” value is “not active” and the IC50 is 203 µM. For the same compound, in data set [3], the “activity against rVSIV-ΔG-G (in words)” value is recorded as “not active” and the IC50 was over 650 µM.

Turning to `CC1(C)[C@H]2CC[C@]1(C)[C@H](OC(=O)CN1CCCC1)C2` [Compound 1], in data set [2], the “specificity of inhibition of MarV-GP-mediated infection (in words)” value (“specificity of inhibition … (in words)” below) is “non-specific inhibitors” and the IC50 was found to be 52 ± 5 µM. The IC50 in data set [3] was 239 ± 19 µM.

Turning to `CC1(C)[C@H]2CC[C@]1(C)[C@H](OC(=O)CCN1CCCC1)C2` [Compound 2], the “specificity of inhibition … (in words)” value in data set [2] is on record as “non-specific inhibitors”. Also, the IC50 is 12 ± 1 µM in data set [2] and 29 ± 6 µM in data set [3].

With `CC1(C)[C@H]2CC[C@]1(C)[C@H](OC(=O)CN1CCCCC1)C2` [Compound 3], the figures for the IC50 in data set [2] and in data set [3] were 86 ± 11 µM and 102 ± 9 µM, respectively.

Consider `CC1(C)[C@H]2CC[C@]1(C)[C@H](OC(=O)CCN1CCCCC1)C2` [Compound 4], for which the IC50 was found to be 9 ± 1 µM in data set [2] and 121 ± 7 µM in data set [3].

As to `CC1CCN(CC(=O)O[C@@H]2C[C@@H]3CC[C@@]2(C)C3(C)C)CC1` [Compound 5], the IC50 in data set [2] was determined as 28 ± 2 µM; in data set [3], 77 ± 16 µM.

`CC1CCN(CCC(=O)O[C@@H]2C[C@@H]3CC[C@@]2(C)C3(C)C)CC1` [Compound 6]: in data set [2], the “specificity of inhibition … (in words)” value is recorded as “highest virus-specific activity” and the IC50 was determined as 4 ± 1 µM. The IC50 in data set [3] came out at 79 ± 19 µM.

For the compound `CC1(C)[C@H]2CC[C@]1(C)[C@H](OC(=O)CN1CCOCC1)C2` [Compound 7], in data set [2], the “activity against rVSIV-ΔG-MarV-GP (in words)” value is recorded as “do not exhibit activity” and the IC50 was found to be 263 ± 24 µM. In data set [3], the IC50 stood at 267 ± 10 µM.

Regarding `CC1(C)[C@H]2CC[C@]1(C)[C@H](OC(=O)CCN1CCOCC1)C2` [Compound 8], in data set [2], the “activity against rVSIV-ΔG-MarV-GP (in words)” value was “do not exhibit activity” and the IC50 came out at 78 ± 7 µM. Further, the IC50 in data set [3] stood at 257 ± 12 µM.

Turning to `CN1CCN(CC(=O)O[C@@H]2C[C@@H]3CC[C@@]2(C)C3(C)C)CC1` [Compound 9], the values for the IC50 in data set [2] and in data set [3] were 47 ± 3 µM and 187 ± 24 µM, respectively.

Take `CN1CCN(CCC(=O)O[C@@H]2C[C@@H]3CC[C@@]2(C)C3(C)C)CC1` [Compound 10]: the IC50 in data set [2] turned out to be 19 ± 1 µM; in data set [3], 318 ± 23 µM.

For the compound `CCN1CCN(CC(=O)O[C@@H]2C[C@@H]3CC[C@@]2(C)C3(C)C)CC1` [Compound 11], the IC50 was 29 ± 2 µM in data set [2] and 447 ± 15 µM in data set [3].

Regarding `CCN1CCN(CCC(=O)O[C@@H]2C[C@@H]3CC[C@@]2(C)C3(C)C)CC1` [Compound 12], the IC50 in data set [2] amounted to 10 ± 2 µM; in data set [3], 106 ± 5 µM.

With `CC1(C)[C@H]2CC[C@]1(C)[C@H](OC(=O)CN1CCNCC1)C2` [Compound 13], the IC50 was found to be 20 ± 1 µM in data set [2] and 69 ± 13 µM in data set [3].

Regarding `CC1(C)[C@H]2CC[C@]1(C)[C@H](OC(=O)CCN1CCNCC1)C2` [Compound 14], the figures for the IC50 in data set [2] and in data set [3] were 10 ± 4 µM and 102 ± 25 µM, respectively.

As for `CCCCN(CCCC)CC(=O)O[C@@H]1C[C@@H]2CC[C@@]1(C)C2(C)C` [Compound 15], the “toxicity (in words)” value in data set [1] is listed as “highest toxicity”. For the same compound, the results for the IC50 in data set [2] and in data set [3] were 11 ± 1 µM and 20 ± 1 µM, respectively.

Take `CCCCN(CCCC)CCC(=O)O[C@@H]1C[C@@H]2CC[C@@]1(C)C2(C)C` [Compound 16]: the “toxicity (in words)” value in data set [1] is on record as “highest toxicity”. For the same compound, the figures for the IC50 in data set [2] and in data set [3] were 6 ± 1 µM and 48 ± 5 µM, respectively.

On to `COc1ccc(CCN(C)CCCC(C#N)(c2ccc(OC)c(OC)c2)C(C)C)cc1OC` (stereo not shown) [Verapamil, reference compound], for which the figures for the IC50 in data set [2] and in data set [3] were 13 ± 1 µM and over 200 µM, respectively.
